This experiment deals with Abelson kinase 2 (ABL2) (Homo sapiens, UniProt P42684). Nature of the experiment: Eurofins Arg (ABL2) Human TK Kinase Binding Assay.
Sequence of Abelson kinase 2 (ABL2) (P42684 whole entry): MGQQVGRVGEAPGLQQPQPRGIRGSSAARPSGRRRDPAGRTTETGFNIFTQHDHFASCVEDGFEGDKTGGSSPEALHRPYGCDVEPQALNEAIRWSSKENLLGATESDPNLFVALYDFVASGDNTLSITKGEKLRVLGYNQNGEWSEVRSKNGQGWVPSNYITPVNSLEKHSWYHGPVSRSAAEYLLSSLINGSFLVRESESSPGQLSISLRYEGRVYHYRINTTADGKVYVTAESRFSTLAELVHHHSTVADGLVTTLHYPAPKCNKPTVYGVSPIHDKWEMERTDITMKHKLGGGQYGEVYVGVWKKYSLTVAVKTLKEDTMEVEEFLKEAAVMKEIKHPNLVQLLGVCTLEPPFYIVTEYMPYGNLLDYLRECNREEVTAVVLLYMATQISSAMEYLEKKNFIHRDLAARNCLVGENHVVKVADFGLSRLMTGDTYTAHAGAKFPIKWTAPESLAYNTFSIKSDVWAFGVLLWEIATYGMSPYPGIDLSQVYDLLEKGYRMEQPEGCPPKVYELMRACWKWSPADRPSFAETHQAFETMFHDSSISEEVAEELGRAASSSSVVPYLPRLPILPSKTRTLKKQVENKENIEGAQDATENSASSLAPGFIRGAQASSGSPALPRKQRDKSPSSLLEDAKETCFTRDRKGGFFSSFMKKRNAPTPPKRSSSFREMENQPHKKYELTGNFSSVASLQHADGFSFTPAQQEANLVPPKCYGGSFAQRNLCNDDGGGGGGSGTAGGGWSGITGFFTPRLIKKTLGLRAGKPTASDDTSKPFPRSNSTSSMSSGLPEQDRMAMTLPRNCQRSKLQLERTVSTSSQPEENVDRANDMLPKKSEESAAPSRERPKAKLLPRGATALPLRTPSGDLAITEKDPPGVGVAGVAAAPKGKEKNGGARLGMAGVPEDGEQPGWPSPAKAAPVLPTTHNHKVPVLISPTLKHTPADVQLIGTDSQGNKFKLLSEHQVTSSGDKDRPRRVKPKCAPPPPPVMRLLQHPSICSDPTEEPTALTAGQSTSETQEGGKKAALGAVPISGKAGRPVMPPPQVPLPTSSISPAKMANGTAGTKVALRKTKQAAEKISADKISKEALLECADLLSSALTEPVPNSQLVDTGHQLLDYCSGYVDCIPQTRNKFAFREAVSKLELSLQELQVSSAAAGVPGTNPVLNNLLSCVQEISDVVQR

As for `CSc1cccc(Nc2ncc3cc(-c4c(Cl)cccc4Cl)c(=O)oc3n2)c1` [Compound 12b, 2-(3-(Methylthio)phenylamino)-6-(2,6-dichlorophenyl)-7H-pyrano[2,3-d]pyrimidin-7-one], binding was put at a Kd of 3.8 nM. In the case of `CC(=O)Nc1cccc(Nc2ncc3cc(-c4c(C)cccc4C)c(=O)oc3n2)c1` [Compound 19b, N-(3-(6-(2,6-Dimethylphenyl)-7-oxo-7H-pyrano[2,3-d]pyrimidine-2-ylamino)phenyl)-acetamide] it was 1.3 nM; in that of `Cc1cc(Nc2ncc3cc(-c4c(Cl)cccc4Cl)c(=O)oc3n2)ccc1F` [Compound 12a, 2-(4-Fluoro-3-methylphenylamino)-6-(2,6-dichlorophenyl)-7H-pyrano[2,3-d]pyrimidin-7-one], 3.9 nM. In the case of `Nc1cccc(Nc2ncc3cc(-c4ccccc4)c(=O)oc3n2)c1` [Compound 19c, 2-(3-Aminophenylamino)-6-phenyl-7H-pyrano[2,3-d]pyrimidin-7-one], binding was characterised by a dissociation constant (Kd) of 130 nM. As for `Cc1cccc(C)c1-c1cc2cnc(Nc3cccc(N)c3)nc2oc1=O` [Compound 19a, 2-(3-Aminophenylamino)-6-(2,6-dimethylphenyl)-7H-pyrano[2,3-d]pyrimidine-7-one], the Kd amounted to 1.3 nM. Regarding `CC(=O)Nc1cccc(Nc2ncc3cc(-c4c(Cl)cccc4Cl)c(=O)oc3n2)c1` [Compound 12g, N-(3-(6-(2,6-Dichlorophenyl)-7-oxo-7H-pyrano[2,3-d]pyrimidine-2-ylamino)-phenyl)-acetamide], binding was put at a Kd of 1.1 nM. The value for `Nc1cccc(Nc2ncc3cc(-c4c(Cl)cccc4Cl)c(=O)oc3n2)c1` [Compound 12c, 2-(3-Aminophenylamino)-6-(2,6-dichlorophenyl)-7H-pyrano[2,3-d]pyrimidin-7-one] was 1.1 nM.

`CN(C)c1ccc(Nc2ncc3cc(-c4c(Cl)cccc4Cl)c(=O)oc3n2)cc1` [Compound 12f, 6-(2,6-Dichlorophenyl)-2-(4-(dimethylamino)phenylamino)-7H-pyrano[2,3-d]pyrimidine-7-one] showed an equilibrium dissociation constant (Kd) of 6.9 nM. Molecule `COc1cccc(Nc2ncc3cc(-c4c(Cl)cccc4Cl)c(=O)oc3n2)c1` [Compound 12e, 6-(2,6-Dichlorophenyl)-2-(3-methoxyphenylamino)-7H-pyrano[2,3-d]pyrimidin-7-one] showed a Kd of 1.3 nM.

As to `N#Cc1cccc(Nc2ncc3cc(-c4c(Cl)cccc4Cl)c(=O)oc3n2)c1` [Compound 12d, 3-(6-(2,6-Dichlorophenyl)-7-oxo-7H-pyrano[2,3-d]pyrimidin-2-ylamino)benzonitrile], the dissociation constant (Kd) is 4.5 nM.

Source of the values: US20220096485A1, “FUNCTIONALIZED PYRANO[2,3-D]PYRIMIDIN-7-ONE DERIVATIVES AND METHODS FOR THEIR PREPARATION AND USE” (The Texas A&M University System, priority 2016, published 2022).
